# Laboratory results published in US20220274979A1 (Bayer Pharma Aktiengesellschaft, priority 2018, published 2022).
# Target: T1, Epidermal Growth Factor Receptor (EGFR) (Homo sapiens, UniProt P00533)
# T1 construct: purchased Sigma-Aldrich E3641
# Test: EGFR kinase assay (TR-FRET)
# Format: biochemical
# Conditions: 10 μM ATP; read-out: EGFR kinase inhibition IC50
# Source text: EGFR inhibitory activity of compounds of the present invention was quantified employing the TR-FRET based EGFR assay as described in the following paragraphs.
# Epidermal Growth Factor Receptor (EGFR) affinity purified from human carcinoma A431 cells (Sigma-Aldrich, # E3641) was used as kinase. As substrate for the kinase reaction the biotinylated peptide biotin-Ahx-[…] (SEQ ID NO: 8, C-terminus in amid form) was used which can be purchased e.g. form the company Biosyntan GmbH (Berlin-Buch, Germany).
# For the assay 50 nL of a 100 fold concentrated solution of the test compound in DMSO was pipetted into a black low volume 384 well microtiter plate (Greiner Bio-One, Frickenhausen, Germany), 2 μL of a solution of EGFR in aqueous assay buffer [50 mM Hepes/HCl pH 7.0, 1 mM MgCl2, 5 mM MnCl2, 0.5 mM activated sodium ortho-vanadate, 0.005% (v/v) Tween-20]were added and the mixture was incubated for […] at 22° C. to allow pre-binding of the test compounds to the enzyme before the start of the kinase reaction. Then the kinase reaction was started by the addition of 3 μL of a solution of adenosine-tri-phosphate (ATP, 16.7 μM=>final conc. in the 5 μL assay volume is 10 μM) and substrate (1.67 μM =>final conc. in the 5 μL assay volume is 1μM) in assay buffer and the resulting mixture was incubated for a reaction time of […] at 22° C. The concentration of EGFR was adjusted depending of the activity of the enzyme lot and was chosen appropriate to have the assay in the linear range, typical concentration were about 3 U/ml. The reaction was stopped by the addition of 5 μl of a solution of HTRF detection reagents (0.1 μM streptavidine-XL665 [Cis Biointernational]and 1 nM PT66-Tb-Cryptate, an terbium-cryptate labelled anti-phospho-tyrosine antibody from Cis Biointernational [instead of the PT66-Tb-cryptate PT66-Eu-Chelate from Perkin Elmer can also be used]) in an aqueous EDTA-solution (80 mM EDTA, 0.2% (w/v) bovine serum albumin in 50 mM HEPES pH 7.5).
# The resulting mixture was incubated 1 h at 22° C. to allow the binding of the biotinylated phosphorylated peptide to the streptavidine-XL665 and the PT66-Eu-Chelate. Subsequently the amount of phosphorylated substrate was evaluated by measurement of the resonance energy transfer from the PT66-Tb-Cryptate to the streptavidine-XL665. Therefore, the fluorescence emissions at 620 nm and 665 nm after excitation at 337 nm were measured in a HTRF reader, e.g. a Pherastar (BMG Labtechnologies, Offenburg, Germany) or a Viewlux (Perkin-Elmer). The ratio of the emissions at 665 nm and at […] was taken as the measure for the amount of phosphorylated substrate.
# T1 sequence (P00533 25-1210): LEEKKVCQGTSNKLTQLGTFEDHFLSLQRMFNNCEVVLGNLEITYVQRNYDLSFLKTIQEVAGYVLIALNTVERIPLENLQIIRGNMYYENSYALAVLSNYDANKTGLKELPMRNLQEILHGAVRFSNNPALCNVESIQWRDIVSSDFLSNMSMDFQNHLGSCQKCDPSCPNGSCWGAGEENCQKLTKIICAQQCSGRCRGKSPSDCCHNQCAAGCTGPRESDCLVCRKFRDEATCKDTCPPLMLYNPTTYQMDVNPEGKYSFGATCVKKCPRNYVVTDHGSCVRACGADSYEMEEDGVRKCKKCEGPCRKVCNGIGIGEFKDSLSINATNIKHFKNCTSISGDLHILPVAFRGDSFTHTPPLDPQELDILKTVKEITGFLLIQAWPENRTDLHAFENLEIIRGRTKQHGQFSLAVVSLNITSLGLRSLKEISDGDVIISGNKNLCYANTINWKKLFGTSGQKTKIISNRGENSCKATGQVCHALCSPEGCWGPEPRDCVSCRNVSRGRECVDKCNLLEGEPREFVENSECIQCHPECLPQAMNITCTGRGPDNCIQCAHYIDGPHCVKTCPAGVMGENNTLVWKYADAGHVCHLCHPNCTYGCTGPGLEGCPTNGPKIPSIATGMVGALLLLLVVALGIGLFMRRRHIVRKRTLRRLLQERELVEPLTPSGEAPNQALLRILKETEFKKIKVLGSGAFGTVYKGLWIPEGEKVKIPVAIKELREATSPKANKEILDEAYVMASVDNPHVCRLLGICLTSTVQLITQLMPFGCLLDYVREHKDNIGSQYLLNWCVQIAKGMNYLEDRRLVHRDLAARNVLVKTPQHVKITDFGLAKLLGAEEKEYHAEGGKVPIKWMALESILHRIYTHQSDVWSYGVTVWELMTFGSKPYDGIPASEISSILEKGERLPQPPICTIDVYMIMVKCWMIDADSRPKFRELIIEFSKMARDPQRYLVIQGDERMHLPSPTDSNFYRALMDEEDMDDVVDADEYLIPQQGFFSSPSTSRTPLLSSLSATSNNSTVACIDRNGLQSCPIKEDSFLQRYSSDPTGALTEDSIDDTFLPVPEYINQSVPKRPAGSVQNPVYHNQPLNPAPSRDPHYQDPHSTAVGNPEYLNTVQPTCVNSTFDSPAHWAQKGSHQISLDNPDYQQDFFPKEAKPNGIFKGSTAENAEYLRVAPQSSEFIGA
row,Structure (SMILES),IC50
1,"CC(=O)N[C@@H]1CCN(c2cc3c(NC(C)c4ccc(-c5ccccc5CN(C)C)s4)nc(C)nc3cn2)C1 (single isomer, unassigned) [Example 79]",> 20 µM
2,"CC(=O)N[C@H]1CCN(c2cc3c(NC(C)c4ccc(-c5ccccc5CN(C)C)s4)nc(C)nc3cn2)C1 (single isomer, unassigned) [Example 81]",> 20 µM
3,"CC(=O)N[C@H]1CCN(c2cc3c(NC(C)c4ccc(-c5ccccc5CN(C)C)s4)nc(C)nc3cn2)C1 (single isomer, unassigned) [Example 82]",> 20 µM
4,"CC(=O)N[C@@H]1CCN(c2cc3c(NC(C)c4ccc(-c5ccccc5CN(C)C)s4)nc(C)nc3cn2)C1 (single isomer, unassigned) [Example 80]",> 20 µM
